For orientation: MIC means the lowest concentration that inhibits growth of the organism. A word on the HC50: it is the concentration giving 50% haemolysis.

The record followed here is patent US20220324796A1, “ANTIBIOTIC COMPOUNDS” (The General Hospital Corporation, priority 2019, published 2022).

Data set [1] has as its system daptomycin-intermediate or-resistant Enterococcal strains. Kind of data set: MIC assay, Enterococcal strains. The data set is classed as cell-based. The note with it: Enterococcus; range over several daptomycin-intermediate or -resistant Enterococcal strains. The procedure:
Bacterial strains and growth conditions. S. aureus strains were grown in tryptic soy broth (TSB) (BD, Franklin Lakes, N.J., USA). E. faecium and E. faecalis strains were grown in brain-heart infusion (BHI) broth (BD, Franklin Lakes, N.J., USA), and four Gram-negative species, Klebsiella pneumoniae, Acinetobacter baumannii, Pseudomonas aeruginosa, and Enterobacter aerogenes were grown in Luria Bertani (LB) broth (BD, Franklin Lakes, N.J., USA). All bacteria were grown at 37° C. at 200 r.p.m.
(§1) Minimal inhibitory concentration (MIC) assay. The MICs of antibiotics were determined by the standard micro-dilution method recommended by the Clinical and Laboratory Standards Institute. MIC assays were conducted in biological triplicate.

The test system of data set [2] is exponential-phase S. aureus MW2. Briefly: Killing kinetics assay. It is filed as cell-based. The procedure:
Killing kinetics assay. An overnight culture of S. aureus MW2 ^−was diluted in 25 mL TSB to a concentration of ˜10^5 CFU/mL. The diluted culture was grown to exponential-phase (˜2×10^7 CFU/mL) at 37° C. with shaking at 200 rpm. 1 mL of the exponential-phase culture was added to each well of a 96-well assay block (Corning Costar 3960) containing 1 mL of 2× of the desired concentrations of antibiotics dissolved in pre-warmed TSB at 37° C. The assay block was then incubated at 37° C. with shaking at 200 rpm. At every hour, 400 μl cultures were removed, washed once with PBS, serially diluted and spot-plated onto tryptic soy agar (TSA, BD) plates. The plates were incubated at 37° C. overnight, and colonies were counted to determine the titer of the cultures. These experiments were conducted in biological triplicate.

Data set [3] relates to MRSA MW2 biofilm persisters. Briefly: Biofilm persister killing assay. The data set is classed as cell-based, S. aureus. Here is the method:
Biofilm persister killing assay. An overnight culture of S. aureus MW2 cells was diluted 1:200 with TSB supplemented with 0.2% glucose and 3% NaCl. A 13 mm diameter Millipore mixed cellulose ester membrane (EMD Millipore GSWP01300) was placed at the bottom of each well of a 12-well assay plate (Falcon 353043). […] was added to each well and statically incubated at 37° C. for 24 h. The membranes were washed 3-times with PBS and transferred to a fresh 12-well plate, 1 mL PBS containing the desired concentration of antibiotics was added to each well, and then the plate was statically incubated at 37° C. for 24 h, The membranes were washed 3 times with PBS, placed in 2-mL microcentrifuge tubes containing 1 mL PBS, and sonicated in an ultrasonic bath (Fisher Scientific FS 30) for 10 min. The sonicated samples were serially diluted, spot-plated on TSA to enumerate the number of live cells. The experiment was conducted in biological triplicate.

The test system of data set [4] is human erythrocytes. The note with it: 1 h.
Data set [5] relates to S. aureus MW2. Briefly: Membrane fluidity assay (Laurdan GP). It is filed as cell-based. The note with it: 1 h. The procedure:
Membrane fluidity assay. Bacterial membrane fluidity was estimated by slightly modifying previously described methods. An overnight culture of S. aureus MW2 was diluted 1:1,000 in 25 mL TSB. The diluted culture was grown to OD600˜1.5 at 37° C. with shaking at 200 rpm, followed by 10 min incubation with 10 μM Laurdan at room temperature in the dark (Sigma-Aldrich, Cat # 40227). The stained cell culture was washed with PBS 4 times and concentrated 2 times. 100 μL of the 2-fold concentrated culture was mixed with 100 μL of phosphate buffered saline (PBS) containing twice the desired concentrations of compounds in black, clear-bottom, 96-well plates (Corning no. 3904). After 1 h incubation at room temperature in the dark, the Laurdan fluorescence intensities were measured using a spectrophotometer (SpectraMax M2, Molecular Devices) with emission wavelengths of 435 nm and 490 nm upon excitation at 350 nm. The Laurdan GP was calculated using the formula GP=(I435−I490)/(I435+I490). All experiments were conducted in biological triplicate.

Data set [6] relates to MRSA BF2. Kind of data set: MIC assay (micro-dilution). The data set is classed as cell-based, S. aureus. To be noted: Staphylococcus aureus. Here is the method:
as §1
Antimicrobial activity of each analog was tested against four MRSA strains (MW2, BF1, BF2, and BF3), Pseudomonas aeruginosa (PA14), Klebsiella pneumonia (WGLW2), and Acinetobacter baumannii (ATCC 17978).
A general note: Broth dilution looks for growth in wells or tubes with falling amounts of substance.

For data set [7], the system named is stationary-phase MRSA MW2 persisters. Kind of data set: Persister killing assay. It is filed as cell-based, S. aureus. The procedure: (§2) Persister killing assay. […] Persister cells of MRSA MW2 or VRSA VRS1 were prepared by growing cultures overnight to stationary phase at 37° C. at 200 rpm and washing three times with PBS. 1 mL of ˜1×10^8 CFU/mL MRSA persisters was added to 1 mL of PBS containing a 2-fold higher concentration of the desired concentration of antibiotics in a 96-well assay block (Corning Costar 3960). For assays with daptomycin, PBS was supplemented with 50 μg/mL CaCl2. The assay block was incubated at 37° C. with shaking at 200 rpm. At various times, 400 μl samples were removed, washed once with PBS, serially diluted and spot-plated on TSA plates. Colonies were counted after overnight incubation at 37° C. to determine the titer of live cells. These experiments were conducted in triplicate.

Data set [8] concerns VRSA strain VRS1 persisters. Kind of data set: Persister killing assay. It is filed as cell-based, S. aureus. The note with it: linezolid and daptomycin at 100× MIC; bithionol at indicated concentrations (FIG. 1E). Here is the method: as §2
The subject of data set [9] is MRSA strain MW2 persisters. Briefly: Deep-seated mouse thigh infection model, bacterial load. The data set is classed as in vivo. To be noted: 30 mg/kg each agent, every 12 h for 3 days from 24 h post-infection. The procedure: Deep-seated mouse thigh infection model. […] Mice were euthanized at 96 h post-infection. […] Thighs were homogenized in PBS, serially diluted with PBS, and spot-plated on TSA plates.

The structures appear in SMILES notation. ≈ marks a conversion by molar mass, not a printed value. A value given as a limit tells only on which side of the number the result lay.

Regarding `Oc1c(Cl)cc(Cl)cc1Sc1cc(Cl)cc(Cl)c1O` [bithionol, 6,6′-thio-bis-(2,4-dichlorophenol)], the MIC in data set [1] was 0.5 to 2 µg/mL (≈ 1.4 to 5.62 µM); in data set [6], 0.5 µg/mL (≈ 1.4 µM). Besides, in data set [2] (10 μg/mL (10× MIC)), the “time to eradicate ~10^7 CFU/mL exponential-phase S. aureus MW2” value is at most 3 h. The rate of killing result in [2] (10× MIC, compared with daptomycin and vancomycin) was “comparable to daptomycin (at 10× MIC) but significantly faster than the killing kinetics of vancomycin”. The “time to complete eradication of biofilm persisters” value in data set [3] (32 μg/mL (32× MIC)) is listed as at most 24 h. For the same compound, the “concentration completely eradicating biofilm persisters” value in data set [3] (24 h treatment) turned out to be 32 µg/mL. Besides, in data set [4], the 50% haemolytic concentration (HC50) is over 64 µg/mL. The “concentrations inducing a significant decrease in Laurdan GP” value in data set [5] is on record as “over 8 μg/mL”. Besides, the “time to complete eradication of stationary-phase MRSA persisters” value in data set [7] (32 μg/mL (32× MIC)) is at most 2 h. Also, the “concentration required to completely eradicate stationary-phase MRSA persisters” value in [7] (5×10^7 CFU/mL MRSA MW2 persisters) is 32 µg/mL. In [7] (FIG. 1C), the “concentrations exhibiting significant killing activity against MRSA MW2 persisters” value is over 16 µg/mL. The “viability of MRSA persisters” value in data set [7] (bithionol 8 μg/mL alone (FIGS. 1C, D)) is recorded as “do not lead to a significant decrease in the viability”. Moreover, in [8], the “activity against VRSA VRS1 persisters” value is on record as “highly efficacious at eradicating”. Moreover, the “effect on MRSA CFUs in the mouse thigh” value in data set [9] is on record as “no effect”.
